Values of other authors as cited in patent publication US20240325295A1, “AQUEOUS BUMETANIDE-CONTAINING LIQUID” (DriPel B.V., priority 2021, published 2024).
In brackets after ≈: the same amount, converted by molar mass.

Columns and labels:
[1] = at 4° C.
[2] = at 25° C.

CCCCNc1cc(C(=O)O)cc(S(N)(=O)=O)c1Oc1ccccc1 [Bumetanide]
solubility in glycofurol ([1]; glycofurol): 167 mg/mL (≈ 458 mM) | solubility in polyethylene glycol 200 ([1]; polyethylene glycol 200): 143 mg/mL (≈ 392 mM) | water solubility [2]: 0.026 mg/mL (≈ 0.0713 mM)
